Assay results published in patent US7977362B2, “Alpha-(N-benzenesulfonamido)cycloalkyl derivatives” (Bristol-Myers Squibb Company, priority 2009, dated 2011).

Tested on: Aβ formation (γ-secretase) in H4 cells stably transfected to overexpress the HPLAP-APP fusion protein
Test: In vitro assay based on the inhibition of Aβ formation in cultured cells
Type: cell-based, human
Settings: H4 cells overexpressing HPLAP-APP, 18 hrs incubation at 37° C., Aβ in supernatant by time-resolved fluorescence
Experimental: Cultured human cell lines, such as HEK293 and H4 cells, which express APP and γ-secretase activity or transfected derivative cell lines that overexpress wild-type APP, mutant APP, or APP fusion proteins will secrete Aβ peptides into the culture media that can be quantified as previously outlined (Dovey, H. et al., J. Neurochem., 76:173-181 (2001)). The incubation of these cultured cells with γ-secretase inhibitors decreases the production of Aβ peptides. For instance, H4 cells stably transfected to overexpress the HPLAP-APP fusion protein described above were grown as above, detached, and adjusted to 2×10^5 cells/ml. 100 μl of the resulting suspension was then added to each well of a 96-well plate. After 4 hrs, the media was removed and replaced with 100 μl serum-free media containing various dilutions of the test compound. Plates were then incubated for 18 hrs at 37° C. and a 100 μl aliquot of the tissue culture supernatant was removed for determination of Aβ levels using time-resolved fluorescence of the homogenous sample as outlined above. Alternately, the other methods described above for Aβ determination could be used. The extent of Aβ inhibition was used to calculate the IC50 value for the test compound.
In the table, an inhibitory concentration (IC50) of less than or equal to 50 nM is represented by +++; between 50 nM and 500 nM by ++; between 500 nM and 5000 nM by +.

[1] = Homo sapiens, 18 h, class symbols
[2] = Homo sapiens, 18 h, numeric values

| IC50 [1] [nM] | Structure (SMILES) | further results |
| --- | --- | --- |
| ≤ 50 | O=S(=O)(c1ccc(Cl)cc1)N(Cc1ccc(-c2ncco2)cc1)[C@@H]1CCCC[C@H]1CO [Compound 18, 4-Chloro-N-((1R,2R)-2-(hydroxymethyl)cyclohexyl)-N-(4-(oxazol-2-yl)benzyl)benzenesulfonamide] |  |
| ≤ 50 | O=S(=O)(c1ccc(Cl)cc1)N(Cc1ccc(-c2ncco2)cc1F)[C@@H]1CCCC[C@H]1CO [Compound 19, 4-Chloro-N-(2-fluoro-4-(oxazol-2-yl)benzyl)-N-((1R,2R)-2-(hydroxymethyl)cyclohexyl)benzenesulfonamide] |  |
| ≤ 50 | O=S(=O)(c1ccc(Cl)cc1)N(Cc1cc(F)c(-c2ncco2)cc1F)[C@@H]1CCCC[C@H]1CO [Compound 20, 4-Chloro-N-(2,5-difluoro-4-(oxazol-2-yl)benzyl)-N-((1R,2R)-2-(hydroxymethyl)cyclohexyl)benzenesulfonamide] |  |
|  | O=S(=O)(c1ccc(Cl)cc1)N(Cc1cc(F)c(-c2ncon2)cc1F)[C@@H]1CCCC[C@H]1CO [Compound 21, 4-Chloro-N-(2,5-difluoro-4-(1,2,4-oxadiazol-3-yl)benzyl)-N-((1R,2R)-2-(hydroxymethyl)cyclohexyl)benzenesulfonamide] | IC50 (numeric values): 0.15 nM |
| ≤ 50 | O=S(=O)(c1ccc(Cl)cc1)N(Cc1ccc(-c2ncco2)cc1F)[C@@H]1CCCC[C@H]1CF [Compound 22, 4-Chloro-N-(2-fluoro-4-(oxazol-2-yl)benzyl)-N-((1R,2R)-2-(fluoromethyl)cyclohexyl)benzenesulfonamide] |  |
| 500 to 5000 | CC(C)(O)[C@@H]1CCCC[C@H]1N(Cc1ccc(-c2ncco2)cc1F)S(=O)(=O)c1ccc(Cl)cc1 [Compound 23, 4-Chloro-N-(2-fluoro-4-(oxazol-2-yl)benzyl)-N-((1R,2R)-2-(2-hydroxypropan-2-yl)cyclohexyl)benzenesulfonamide] |  |
| ≤ 50 | O=S(=O)(c1ccc(C(F)(F)F)nc1)N(Cc1cc(F)c(-c2ncon2)cc1F)[C@@H]1CCCC[C@H]1CO [Compound 26, N-(2,5-Difluoro-4-(1,2,4-oxadiazol-3-yl)benzyl)-N-((1R,2R)-2-(hydroxymethyl)cyclohexyl)-6-(trifluoromethyl)pyridine-3-sulfonamide] |  |
| 500 to 5000 | O=S(=O)(c1ccc(Cl)cc1)N(Cc1ccc(Br)cc1)C1CC2CCC1C2O (stereo not drawn) [Compound 33, N-(4-Bromobenzyl)-N-(7-hydroxybicyclo[2.2.1]heptan-2-yl)-4-chlorobenzenesulfonamide] |  |
| 500 to 5000 | O=S(=O)(c1ccc(Cl)cc1)N(Cc1ccc(-c2ncco2)cc1)C1CC2CCC1C2O (stereo not drawn) [Compound 34, N-(4-(Oxazol-2-yl)benzyl)-N-(7-hydroxybicyclo[2.2.1]heptan-2-yl)-4-chlorobenzenesulfonamide] |  |
|  | O=S(=O)(c1ccc(Cl)cc1)N(Cc1ccc(-c2ncon2)cc1)C1CC2CCC1C2O (stereo not drawn) [Compound 35, N-(4-(1,2,4-Oxadiazol-3-yl)benzyl)-N-(7-hydroxybicyclo[2.2.1]heptan-2-yl)-4-chlorobenzenesulfonamide] | IC50 [2]: 3240 nM |
|  | O=S(=O)(c1ccc(Cl)cc1)N(Cc1ccc(-c2ncco2)cc1)C1(CO)CCCCC1 [Compound 36, 4-Chloro-N-(1-(hydroxymethyl)cyclohexyl)-N-(4-(oxazol-2-yl)benzyl)benzenesulfonamide] | IC50 [2]: 346 nM |
| 500 to 5000 | O=S(=O)(c1ccc(Cl)cc1)N(Cc1ccc(-c2ncon2)cc1)C1(CO)CCCCC1 [Compound 37, N-(4-(1,2,4-Oxadiazol-3-yl)benzyl)-4-chloro-N-(1-(hydroxymethyl)cyclohexyl)benzenesulfonamide] |  |
